The source made the active and inactive calls.
Assays:
[1] = microbe, parasite or virus in culture; format: functional; conditions: Mycobacterium tuberculosis
[2] = target: T1, Corticotropin-releasing factor receptor 2/Corticotropin-releasing factor-binding protein (Homo sapiens, UniProt P24387+Q13324); assay: activators of CRF receptor 2 with binding protein – uHTS hits, confirmation (AID 602473); format: functional; conditions: read-out: EC50_Mean
T1 sequence (Q13324 whole entry): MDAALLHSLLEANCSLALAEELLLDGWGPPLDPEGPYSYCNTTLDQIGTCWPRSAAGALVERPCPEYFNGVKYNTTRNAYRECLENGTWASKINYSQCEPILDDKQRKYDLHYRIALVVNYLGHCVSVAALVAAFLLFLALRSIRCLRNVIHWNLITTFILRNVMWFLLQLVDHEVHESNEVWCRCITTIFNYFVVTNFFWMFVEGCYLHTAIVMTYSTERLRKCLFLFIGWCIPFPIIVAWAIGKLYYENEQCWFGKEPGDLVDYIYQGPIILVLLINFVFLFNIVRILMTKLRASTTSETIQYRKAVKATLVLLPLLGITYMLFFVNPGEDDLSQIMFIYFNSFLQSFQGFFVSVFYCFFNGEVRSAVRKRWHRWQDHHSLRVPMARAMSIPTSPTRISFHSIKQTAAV
T1 sequence (P24387 whole entry): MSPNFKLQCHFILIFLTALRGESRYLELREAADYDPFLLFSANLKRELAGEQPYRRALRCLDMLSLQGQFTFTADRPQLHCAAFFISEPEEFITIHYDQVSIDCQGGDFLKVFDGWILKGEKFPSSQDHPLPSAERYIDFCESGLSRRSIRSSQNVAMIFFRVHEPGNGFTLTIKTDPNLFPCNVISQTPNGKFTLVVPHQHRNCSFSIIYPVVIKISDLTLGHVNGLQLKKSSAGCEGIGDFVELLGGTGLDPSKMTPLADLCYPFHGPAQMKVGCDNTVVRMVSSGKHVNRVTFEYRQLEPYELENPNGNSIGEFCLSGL

[3] = target: T1, Corticotropin-releasing factor receptor 2/Corticotropin-releasing factor-binding protein; assay: Dose Response confirmation of uHTS hits for small molecule antagonists of the CRF-binding protein and CRF-R2 receptor complex.; format: functional; conditions: read-out: IC50_Mean
[4] = HEp-2 cell cytotoxicity, dose response, cytotoxicity control for RSV inhibitor project, HTS (AID 2410); format: functional; conditions: human respiratory syncytial virus
Cytochrome P450 2C9 = Cytochrome P450 2C9 (Homo sapiens, UniProt P11712)
Cytochrome P450 3A4 = Cytochrome P450 3A4 (Homo sapiens, UniProt P08684);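 also: CYP3A4 tested as one member of a cytochrome P450 panel screen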
[5] = Luminescence Cell-Based Dose Response HTS to Identify Inhibitors of 5'UTR Stem-Loop Driven Prion Protein mRNA Translation in H4 Neuroglioblastoma Cells. [Related pubchem assays: 1827 (Project Summary), 1813 (Primary HTS)]; format: functional
[6] = inhibitors of SNCA 5'UTR-driven reporter translation, confirmation, H4 neuroglioma cells, luminescence (AID 1988); format: functional, cell-based
[7] = target: T2, Calpain-2 catalytic subunit (Sus scrofa, UniProt P43367); assay: pig calpain II inhibitor potency, dose response, biochemical, fluorogenic peptide substrate (AID 1420); format: functional
T2 sequence (P43367 whole entry): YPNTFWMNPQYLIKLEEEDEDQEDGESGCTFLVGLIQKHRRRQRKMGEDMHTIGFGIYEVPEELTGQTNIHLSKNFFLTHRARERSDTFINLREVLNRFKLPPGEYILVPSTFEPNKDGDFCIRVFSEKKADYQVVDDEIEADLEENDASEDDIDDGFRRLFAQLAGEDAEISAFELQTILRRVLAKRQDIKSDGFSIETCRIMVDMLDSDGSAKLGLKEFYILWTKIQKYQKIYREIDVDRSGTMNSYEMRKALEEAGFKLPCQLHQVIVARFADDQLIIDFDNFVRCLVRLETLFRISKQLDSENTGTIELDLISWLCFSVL

[8] = inhibitors of firefly luciferase expression or activity, dose response, H4 neuroglioma cells, luminescence (AID 1990); format: functional, cell-based
INS1 = assay: beta cell apoptosis inhibitors, cytokine rescue, dose response, luminescence, retest (AID 449756); format: functional, cell-based; conditions: Rattus norvegicus;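 also: cell death triggered by IL-1 beta plus TNF-alpha plus IFN-gamma mixture; protective hits raise ATP signal compared with cytokine alone wells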
[9] = Luminescence Cell-Based Dose Confirmation HTS to Identify Inhibitors of Platelet Dense Granule Release. [Related pubchem assays: 1663 (Primary HTS), 1678 (Summary of Project)]; format: functional
[10] = target: Luciferin 4-monooxygenase (Photinus pyralis, UniProt P08659); assay: firefly luciferase enzyme inhibitors, dose response, biochemical, luminescence (AID 1891)
Cytochrome P450 2C19 = Cytochrome P450 2C19 (Homo sapiens, UniProt P33261); assay: Cytochrome panel assay with activity outcomes. Panel member name: p450-cyp2c19 Compounds with AC50 equal or less than 10 uM are considered active; format: functional; conditions: read-out: AC50
Cytochrome P450 2D6 = Cytochrome P450 2D6 (Homo sapiens, UniProt P10635);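 also: CYP2D6 member of a cytochrome P450 panel assay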
Cytochrome P450 2D6, sequence (P10635 whole entry): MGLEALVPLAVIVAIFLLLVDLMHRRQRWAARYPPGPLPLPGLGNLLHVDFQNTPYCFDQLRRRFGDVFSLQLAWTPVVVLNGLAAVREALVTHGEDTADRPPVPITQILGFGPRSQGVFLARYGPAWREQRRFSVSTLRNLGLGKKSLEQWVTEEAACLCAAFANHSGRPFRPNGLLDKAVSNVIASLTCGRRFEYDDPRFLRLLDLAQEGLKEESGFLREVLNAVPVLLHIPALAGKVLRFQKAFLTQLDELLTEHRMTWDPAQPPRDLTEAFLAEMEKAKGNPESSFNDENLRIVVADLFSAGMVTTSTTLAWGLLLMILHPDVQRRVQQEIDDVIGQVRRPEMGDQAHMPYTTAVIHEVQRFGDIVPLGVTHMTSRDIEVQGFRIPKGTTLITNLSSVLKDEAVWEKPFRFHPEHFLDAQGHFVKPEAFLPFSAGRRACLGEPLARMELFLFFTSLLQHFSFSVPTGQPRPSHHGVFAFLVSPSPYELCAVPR

Cytochrome P450 3A4, sequence (P08684 whole entry): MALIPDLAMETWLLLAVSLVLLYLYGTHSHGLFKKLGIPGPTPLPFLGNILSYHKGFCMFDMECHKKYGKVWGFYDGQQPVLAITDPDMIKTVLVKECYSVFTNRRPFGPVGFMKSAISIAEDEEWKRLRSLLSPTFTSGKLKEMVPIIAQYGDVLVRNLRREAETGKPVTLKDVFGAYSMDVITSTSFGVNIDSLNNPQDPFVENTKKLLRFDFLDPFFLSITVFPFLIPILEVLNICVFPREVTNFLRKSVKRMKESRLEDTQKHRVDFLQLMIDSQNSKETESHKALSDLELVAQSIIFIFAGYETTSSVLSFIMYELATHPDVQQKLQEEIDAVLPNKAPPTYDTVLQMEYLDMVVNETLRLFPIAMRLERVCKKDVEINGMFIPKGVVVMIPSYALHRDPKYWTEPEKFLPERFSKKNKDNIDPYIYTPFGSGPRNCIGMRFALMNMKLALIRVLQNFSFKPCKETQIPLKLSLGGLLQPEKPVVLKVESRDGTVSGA
Cytochrome P450 2C9, sequence (P11712 whole entry): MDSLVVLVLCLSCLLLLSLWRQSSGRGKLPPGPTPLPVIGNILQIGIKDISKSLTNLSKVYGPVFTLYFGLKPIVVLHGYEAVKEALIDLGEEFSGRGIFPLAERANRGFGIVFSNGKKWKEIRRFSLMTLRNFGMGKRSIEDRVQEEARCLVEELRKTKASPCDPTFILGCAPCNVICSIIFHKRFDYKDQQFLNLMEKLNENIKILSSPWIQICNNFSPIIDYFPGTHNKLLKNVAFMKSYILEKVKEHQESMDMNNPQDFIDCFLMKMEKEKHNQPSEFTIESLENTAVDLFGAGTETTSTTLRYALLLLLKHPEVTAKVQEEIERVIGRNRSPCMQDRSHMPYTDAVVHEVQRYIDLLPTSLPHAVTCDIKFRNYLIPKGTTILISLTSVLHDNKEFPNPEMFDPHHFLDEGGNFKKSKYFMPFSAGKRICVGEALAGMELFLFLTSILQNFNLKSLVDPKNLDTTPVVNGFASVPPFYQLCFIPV
Cytochrome P450 2C19, sequence (P33261 whole entry): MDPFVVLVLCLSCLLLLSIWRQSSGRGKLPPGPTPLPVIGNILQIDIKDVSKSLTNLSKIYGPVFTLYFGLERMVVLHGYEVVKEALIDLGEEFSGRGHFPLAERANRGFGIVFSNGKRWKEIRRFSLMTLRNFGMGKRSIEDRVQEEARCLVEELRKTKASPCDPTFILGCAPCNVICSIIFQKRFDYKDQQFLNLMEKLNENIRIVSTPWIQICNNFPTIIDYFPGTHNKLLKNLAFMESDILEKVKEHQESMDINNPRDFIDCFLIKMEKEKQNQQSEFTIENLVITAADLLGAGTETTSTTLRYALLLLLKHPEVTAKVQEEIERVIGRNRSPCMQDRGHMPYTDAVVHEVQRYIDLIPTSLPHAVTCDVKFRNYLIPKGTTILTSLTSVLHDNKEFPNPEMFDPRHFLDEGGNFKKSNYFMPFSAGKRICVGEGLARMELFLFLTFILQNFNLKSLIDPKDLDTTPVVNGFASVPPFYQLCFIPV
Luciferin 4-monooxygenase, sequence (P08659 whole entry): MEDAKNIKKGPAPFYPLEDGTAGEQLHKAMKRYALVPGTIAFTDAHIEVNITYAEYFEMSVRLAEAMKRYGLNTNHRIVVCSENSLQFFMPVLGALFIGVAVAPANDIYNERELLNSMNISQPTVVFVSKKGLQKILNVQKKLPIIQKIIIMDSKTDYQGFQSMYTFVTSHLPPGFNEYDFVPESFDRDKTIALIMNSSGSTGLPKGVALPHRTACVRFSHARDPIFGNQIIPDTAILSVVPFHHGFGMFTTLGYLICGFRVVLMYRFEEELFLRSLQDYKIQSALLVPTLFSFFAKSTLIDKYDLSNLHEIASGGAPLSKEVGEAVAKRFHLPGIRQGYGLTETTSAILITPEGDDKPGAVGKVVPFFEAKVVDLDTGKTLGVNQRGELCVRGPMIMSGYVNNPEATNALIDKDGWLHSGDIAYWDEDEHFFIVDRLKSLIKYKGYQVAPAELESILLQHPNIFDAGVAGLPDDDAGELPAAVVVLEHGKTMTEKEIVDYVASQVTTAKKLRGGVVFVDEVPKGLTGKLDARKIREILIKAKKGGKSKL

c1ccc(CN2CCC3(CCCc4ccccc43)CC2)cc1
CC50 [1]: > 40 µM (active)

FC(F)(F)c1ccccc1-c1nc(-c2ccncc2)no1
EC50 [2]: > 53 µM (inactive) | IC50 [3]: > 47.1 µM (inactive) | CC50 [4]: 30.5 µM (active)

Cc1ccc(C)n1NC(=O)c1ccccc1
AC50 (Cytochrome P450 2C9): 0.141 µM (inconclusive) | AC50 (Cytochrome P450 3A4): 31.6 µM (inconclusive)

CC(C)c1ccc(/C=C/C2=NNC(=O)CC2)cc1
EC50 [5]: 11.5 µM (active) | EC50 [6]: 0.13 µM (active) | IC50 [7]: 14.3 µM (not active) | EC50 [8]: < 0.1 µM (active)

Cc1ccccc1OC1C(=O)N(Cc2ccc3c(c2)OCO3)C1c1sccc1C (stereo unspecified)
AC50 (INS1): 11.4 µM (active)

COc1ccc2nc(NN=C3C(=O)CC(C)(C)CC3=O)sc2c1
CC50 [1]: 26.2 µM (active)

O=C(c1ccc(Oc2ccccc2)cc1)c1nc2c(n1O)CCCC2
IC50 [7]: 12.9 µM (not active)

CCN(c1cccc(C)c1)c1nc2ccsc2c(=O)s1
EC50 [2]: > 53 µM (inactive) | IC50 [3]: > 47.1 µM (inactive)

CCc1nnc(NC(=O)[C@@H](NC(=O)c2cc(OC)cc(OC)c2)C(C)C)s1
EC50 [9]: > 112 µM (not active) | IC50 [7]: 49.9 µM (not active) | EC50 [10]: > 112 µM (not active)

O=C(/C=C/c1ccccc1[N+](=O)[O-])N1CCOCC1
EC50 [2]: > 53 µM (inactive) | IC50 [3]: > 47.1 µM (inactive)

CC(=O)c1ccccc1NC(=O)Cn1c(=O)cnc2ccccc21
EC50 [2]: > 53 µM (inactive) | IC50 [3]: > 47.1 µM (inactive)

CCc1cccc2c(SCC(=O)NCC3CCCO3)nc(-c3ccc(F)cc3)nc12 (stereo unspecified)
IC50 [7]: 26.2 µM (not active)

Cc1ccc(-c2nc(-c3nccc4ccccc34)oc2-c2ccccc2)cc1
AC50 (Cytochrome P450 2C19): 5.01 µM (inconclusive) | AC50 (Cytochrome P450 3A4): 5.01 µM (inconclusive)

O=C(COC(=O)COc1ccc(Cl)cc1Br)NCc1cccs1
EC50 [2]: > 53 µM (inactive) | IC50 [3]: > 47.1 µM (inactive)

c1cc2c(cc1C1CCCCC1)c1c3n2CCN[C@H]3CCC1
AC50 (Cytochrome P450 2C9): 20 µM (inconclusive) | AC50 (Cytochrome P450 3A4): 31.6 µM (inconclusive) | AC50 (Cytochrome P450 2D6): 12.6 µM (inconclusive)

O=C1NN=C(c2ccc(Cl)cc2)CC1c1cccc(Br)c1 (stereo unspecified)
IC50 [7]: 12.5 µM (not active)

CCCCCCC(=O)N1C/C=C\C(c2ccc(OC)cc2)N(Cc2ccc(F)cc2)C(=O)[C@H]1Cc1ccccc1 (stereo partly specified)
AC50 (INS1): 6.16 µM (active) | EC50 [5]: > 120 µM (not active) | EC50 [6]: 9.71 µM (active) | EC50 [8]: > 120 µM (not active)

CCCC1Cc2c(sc(NC(=S)NC(=O)c3ccccc3)c2C#N)CO1 (stereo unspecified)
IC50 [7]: 31 µM (not active)

Source: ChEMBL document CHEMBL1201862, “PubChem BioAssay data set” (2004)
